Test systems include OVCAR-4 ovarian; SN12C renal; HT29 colon; BT-549 breast; M14 melanoma; CCRF-CEM leukemia; UACC-62 melanoma; RXF 393 renal; HL-60(TB) leukemia; A549 NSCLC.
Holding throughout (experiment): NCI tumour cell line growth inhibition, 48 h

Where “and” joins values, the source holds several entries; their conditions need not be identical. Equal values may be shown once.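 Cultured in 96-well plates, cells were exposed to test compound for 48 hours across five concentrations. Abbreviation: GI50, concentration required for 50% inhibition of growth. TGI marks complete inhibition of growth.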 Some results are limits rather than exact numbers.

Turning to `c1ccc(-c2oc(-c3ccccc3)c(CN3CCCCC3)c2CN2CCCCC2)cc1`, the GI50 in the assay on OVCAR-4 ovarian was 2.65 µM; with SN12C renal it was 2.84 µM; in the assay with HT29 colon, 1.27 µM; in the assay on BT-549 breast, 3.35 µM; with M14 melanoma it was 1.83 µM; with CCRF-CEM leukemia it was 2.54 µM. Further, the GI50 with UACC-62 melanoma was 1.79 µM; in the assay with RXF 393 renal it was 1.85 µM; in the assay with HL-60(TB) leukemia, 1.96 µM; in the assay with A549 NSCLC, 5.55 µM. Further, the TGI stood at 13.6 µM in the assay on OVCAR-4 ovarian; 12.4 µM in the assay on SN12C renal; 13.3 µM in the assay on HT29 colon; 13.3 µM in the assay on BT-549 breast; 4.25 µM in the assay on M14 melanoma; 9.97 µM with CCRF-CEM leukemia. The TGI in the assay on UACC-62 melanoma came out at 4.35 µM; in the assay on RXF 393 renal, 5.74 µM; in the assay on HL-60(TB) leukemia it was 5.28 µM; with A549 NSCLC, 24.8 µM.
With `COc1ccc(-c2cc(-c3ccc(Nc4nc(Nc5ccccc5)nc(Nc5ccc(Cl)cc5)n4)cc3)nc(N)n2)cc1`, the GI50 in the assay on OVCAR-4 ovarian is 10.7 µM; in the assay on SN12C renal, 11.8 µM; in the assay with HT29 colon it was 7.56 µM; in the assay on BT-549 breast, 10 µM; in the assay with M14 melanoma, 9.33 µM; with CCRF-CEM leukemia it was 6 µM. For the same molecule, the GI50 was 12.1 µM with UACC-62 melanoma, 12.1 µM in the assay on RXF 393 renal, 2.31 µM in the assay on HL-60(TB) leukemia and 20.5 µM with A549 NSCLC. Besides, the TGI with OVCAR-4 ovarian is over 50 µM; with SN12C renal, 32.6 µM; in the assay with HT29 colon it was 21.8 µM; in the assay on BT-549 breast it was 29.5 µM; with M14 melanoma, 28.8 µM; in the assay with CCRF-CEM leukemia, 29.5 µM. Further, the TGI in the assay on UACC-62 melanoma was over 50 µM; with RXF 393 renal, 30.7 µM; with HL-60(TB) leukemia it was 17.9 µM; in the assay on A549 NSCLC, over 50 µM.
On to `O=C1Nc2ccc(Cl)cc2/C1=C\c1c(-c2ccc(Cl)cc2)nc2sc(C3CC3)nn12`, for which the GI50 was 1.96 µM in the assay on OVCAR-4 ovarian; 3.54 µM with SN12C renal; 5.61 µM in the assay with HT29 colon; 2.52 µM with BT-549 breast; 5.77 µM in the assay on M14 melanoma; 19.8 µM with CCRF-CEM leukemia. Further, the GI50 in the assay on UACC-62 melanoma is 3.06 µM; in the assay with RXF 393 renal it was 1.91 µM; with HL-60(TB) leukemia, 40.8 µM; with A549 NSCLC, 3.58 µM. Moreover, the TGI was 5.16 µM with OVCAR-4 ovarian; 14.2 µM with SN12C renal; 17.4 µM in the assay on HT29 colon; 9.27 µM in the assay with BT-549 breast; 21.8 µM in the assay on M14 melanoma; over 100 µM in the assay on CCRF-CEM leukemia. For the same molecule, the TGI in the assay with UACC-62 melanoma was 14.5 µM; in the assay on RXF 393 renal it was 5.09 µM; in the assay with HL-60(TB) leukemia, over 100 µM; with A549 NSCLC, 13.9 µM.
On to `C=C1C[C@H]2C=Nc3cc(OCCCOc4cc5c(cc4OC)C(=O)N4CC(=C)C[C@H]4C=N5)c(OC)cc3C(=O)N2C1`, for which the GI50 is under 0.012 µM with OVCAR-4 ovarian; 0.00151 µM in the assay with SN12C renal; 0.0126 µM with BT-549 breast; 0.00858 µM and < 0.013 µM with M14 melanoma; 0.00019 µM with CCRF-CEM leukemia; 0.000264 µM with UACC-62 melanoma. The GI50 in the assay on HL-60(TB) leukemia is 0.000245 µM; with A549 NSCLC it was 0.0135 µM. Besides, the TGI in the assay on OVCAR-4 ovarian is 0.0191 µM; with HT29 colon, 19.7 µM; in the assay on M14 melanoma, 0.0846 µM; with CCRF-CEM leukemia, 0.0144 µM; with UACC-62 melanoma, 0.000834 µM and < 0.0123 µM; in the assay on RXF 393 renal, under 0.0292 µM. For the same molecule, the TGI with A549 NSCLC is over 100 µM.
Consider `CN(C)c1ccc(/C=C\c2ccnc3ccccc23)cc1`, for which the GI50 was 9.77 µM with OVCAR-4 ovarian; 8.81 µM with SN12C renal; 2.49 µM in the assay with HT29 colon; 5.09 µM in the assay on BT-549 breast; 4.42 µM in the assay on M14 melanoma; 5.13 µM in the assay with CCRF-CEM leukemia. The GI50 with UACC-62 melanoma is 6.18 µM; in the assay on RXF 393 renal it was 3.2 µM; in the assay on HL-60(TB) leukemia, over 20.2 µM; in the assay with A549 NSCLC, 5.83 µM. Also, the TGI with OVCAR-4 ovarian was over 100 µM; with SN12C renal it was over 74.1 µM; in the assay on HT29 colon, 12.4 µM; in the assay on BT-549 breast it was 49.9 µM; in the assay with M14 melanoma it was over 66 µM; with CCRF-CEM leukemia, over 100 µM. In addition, the TGI is over 100 µM in the assay with UACC-62 melanoma, over 79.6 µM in the assay on RXF 393 renal, over 86.8 µM in the assay on HL-60(TB) leukemia and over 100 µM in the assay on A549 NSCLC.
As for `O=C1NC(=S)S/C1=C\c1cn(-c2ccccc2)nc1-c1ccccc1`, the GI50 with OVCAR-4 ovarian is 8.14 µM; in the assay with SN12C renal, 9.93 µM; with HT29 colon it was 12.5 µM; in the assay with BT-549 breast, 5.2 µM; with M14 melanoma, 6.75 µM; in the assay on CCRF-CEM leukemia, 2.5 µM. Also, the GI50 with UACC-62 melanoma was 3.36 µM; in the assay on RXF 393 renal it was 22.4 µM; in the assay with HL-60(TB) leukemia, 4.83 µM; with A549 NSCLC, 5.88 µM. Further, the TGI with OVCAR-4 ovarian is over 100 µM; in the assay with SN12C renal, over 100 µM; in the assay on HT29 colon, 38.3 µM; in the assay with BT-549 breast, 23.7 µM; in the assay with M14 melanoma, 80.2 µM; in the assay on CCRF-CEM leukemia it was 69.8 µM. Further, the TGI with UACC-62 melanoma is 15.1 µM; with RXF 393 renal, 65.2 µM; in the assay on HL-60(TB) leukemia, 59.8 µM; in the assay with A549 NSCLC it was over 100 µM.

(Values after PubChem BioAssay (NCI).)
